In ChEMBL document CHEMBL5154816, “Structure-Based Discovery and Optimization of Furo[3,2-c]pyridin-4(5H)-one Derivatives as Potent and Second Bromodomain (BD2)-Selective Bromo and Extra Terminal Domain (BET) Inhibitors” (J Med Chem, 2022) one finds IC50, Ratio IC50 and ΔTm data, which are given here for 39 molecules.

Data set [1] has as its target T1, Bromodomain-containing protein 4 (Homo sapiens, UniProt O60885). As to the kind of experiment: Inhibition of C-terminal His6-tagged BRD4 BD1 (unknown origin) using H-YSGRGK(Ac)GGK(Ac)GLGK(Ac)-GGAK(Ac)RHRK-Biotin-OH as substrate incubated for 1 hrs by HTRF assay. (Time-resolved FRET reads energy transfer from a long-lived donor to a nearby acceptor.)
The species named for data set [2] is Homo sapiens. The data set can be described thus: Selectivity index, ratio of IC50 for BRD4 BD1 (unknown origin) to IC50 of BRD4 BD2 (unknown origin).
Data set [3] has as its target T1, Bromodomain-containing protein 4. The data set can be described thus: Inhibition of C-terminal His6-tagged BRD4 BD2 (unknown origin) using H-YSGRGK(Ac)GGK(Ac)GLGK(Ac)-GGAK(Ac)RHRK-Biotin-OH as substrate incubated for 1 hrs by HTRF assay.
Data set [4] has as its target SWI/SNF-related matrix-associated actin-dependent regulator of chromatin subfamily A member 2 (Homo sapiens) (UniProt P51531). As to the kind of experiment: Binding affinity to SMARCA2A (unknown origin) assessed as change in melting temperature at 100 uM incubated for 30 mins by thermal shift assay.
Data set [5] has the same target. As to the kind of experiment: Binding affinity to SMARCA2B (unknown origin) assessed as change in melting temperature at 100 uM incubated for 30 mins by thermal shift assay.
The target in data set [6] is PH-interacting protein (Homo sapiens) (UniProt Q8WWQ0). As to the kind of experiment: Binding affinity to PHIP-2 (unknown origin) assessed as change in melting temperature at 100 uM incubated for 30 mins by thermal shift assay.
A short description of data set [7]: Cytotoxicity against human HFL1 cells assessed as cell growth inhibition incubated for 72 hrs by Cell titre Glo-luminiscence cell viability assay. Format: toxicity, cell-based.

As usually defined, the IC50 is the concentration needed to halve the response being measured. A word on the ΔTm: it is the shift of the melting midpoint relative to a reference.

Sequence of SWI/SNF-related matrix-associated actin-dependent regulator of chromatin subfamily A member 2 (Homo sapiens) (P51531 whole entry): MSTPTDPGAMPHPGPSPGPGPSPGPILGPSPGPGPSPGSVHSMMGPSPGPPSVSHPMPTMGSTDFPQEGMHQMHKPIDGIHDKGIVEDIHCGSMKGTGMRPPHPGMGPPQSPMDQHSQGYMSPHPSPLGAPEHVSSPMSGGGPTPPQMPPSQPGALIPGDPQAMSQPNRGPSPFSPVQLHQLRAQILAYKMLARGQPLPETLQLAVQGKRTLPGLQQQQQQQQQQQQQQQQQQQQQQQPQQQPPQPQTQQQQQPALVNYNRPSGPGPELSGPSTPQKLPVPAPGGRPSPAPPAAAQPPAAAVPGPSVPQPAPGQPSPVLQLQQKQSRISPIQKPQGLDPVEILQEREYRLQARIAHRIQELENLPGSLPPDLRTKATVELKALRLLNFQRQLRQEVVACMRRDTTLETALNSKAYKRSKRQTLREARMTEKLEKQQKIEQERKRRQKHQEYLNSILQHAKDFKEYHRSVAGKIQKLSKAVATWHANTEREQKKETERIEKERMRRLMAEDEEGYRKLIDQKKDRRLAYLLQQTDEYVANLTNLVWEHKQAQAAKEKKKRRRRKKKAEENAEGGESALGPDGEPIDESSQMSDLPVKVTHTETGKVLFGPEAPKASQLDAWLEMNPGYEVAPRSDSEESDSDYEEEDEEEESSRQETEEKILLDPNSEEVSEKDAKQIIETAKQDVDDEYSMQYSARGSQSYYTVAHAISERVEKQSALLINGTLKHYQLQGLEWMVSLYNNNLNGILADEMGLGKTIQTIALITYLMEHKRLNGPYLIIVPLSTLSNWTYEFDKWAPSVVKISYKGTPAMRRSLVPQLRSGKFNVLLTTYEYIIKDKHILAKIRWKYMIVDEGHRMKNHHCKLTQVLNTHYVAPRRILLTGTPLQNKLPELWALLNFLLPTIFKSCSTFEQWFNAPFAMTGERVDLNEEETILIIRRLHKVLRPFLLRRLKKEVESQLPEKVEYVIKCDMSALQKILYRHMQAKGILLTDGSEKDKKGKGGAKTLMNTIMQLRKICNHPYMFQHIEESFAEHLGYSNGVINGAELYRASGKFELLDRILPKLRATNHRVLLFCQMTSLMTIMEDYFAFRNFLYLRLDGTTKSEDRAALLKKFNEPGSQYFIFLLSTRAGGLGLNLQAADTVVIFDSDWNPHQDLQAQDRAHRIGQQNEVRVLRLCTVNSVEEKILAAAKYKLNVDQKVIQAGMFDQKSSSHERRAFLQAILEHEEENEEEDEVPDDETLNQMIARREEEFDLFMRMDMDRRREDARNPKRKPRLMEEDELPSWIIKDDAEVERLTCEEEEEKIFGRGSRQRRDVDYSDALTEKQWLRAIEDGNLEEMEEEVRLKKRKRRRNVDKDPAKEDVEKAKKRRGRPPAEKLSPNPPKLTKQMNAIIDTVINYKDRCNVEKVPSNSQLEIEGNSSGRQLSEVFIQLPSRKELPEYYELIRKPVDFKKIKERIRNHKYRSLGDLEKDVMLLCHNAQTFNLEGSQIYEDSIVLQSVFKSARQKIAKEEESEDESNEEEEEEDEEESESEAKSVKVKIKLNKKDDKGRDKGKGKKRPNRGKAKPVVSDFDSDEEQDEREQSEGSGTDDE

With `CCS(=O)(=O)Nc1ccc(Oc2ccc(F)cc2F)c(-c2cn(C)c(=O)c3cc(-c4cnc(C5CCCC5)[nH]4)oc23)c1`, the IC50 in data set [1] came to 4.1 nM; in data set [3] it was 0.91 nM. In addition, in data set [2], the Ratio IC50 worked out at 4.52.
The like results for `CCS(=O)(=O)Nc1ccc(Oc2ccc(F)cc2F)c(-c2cn(C)c(=O)c3cc(-c4ccccc4)oc23)c1` were, in that order, 2.4 nM, 1.5 nM and 1.6.
For the molecule `CC(=O)Nc1ccc(Oc2ccc(F)cc2F)c(-c2cn(C)c(=O)c3cc(-c4cc(C)c(OCCO)c(C)c4)oc23)c1`, the IC50 in data set [1] stood at 0.52 nM; in data set [3] it was 0.83 nM. Further, the Ratio IC50 in data set [2] was found to be 0.63.
The like results for `CCS(=O)(=O)Cc1ccc(Oc2ccc(F)cc2F)c(-c2cn(C)c(=O)c3cc(-c4cc(C)c(OCCO)c(C)c4)oc23)c1` were, in that order, 0.33 nM, 0.55 nM and 0.6.
For `Cc1cc(F)cc(C)c1Oc1ccc(C(C)(C)O)cc1-c1cn(C)c(=O)c2cc(-c3cnc(C4CCOC4)[nH]3)oc12` (stereo unspecified), the results for the IC50 in data set [1] and in data set [3] were 78 nM and 0.6 nM, respectively. The Ratio IC50 in data set [2] stood at 130.
The like results for `CCCS(=O)(=O)Nc1ccc(Oc2ccc(F)cc2F)c(-c2cn(C)c(=O)c3cc(-c4cc(C)c(OCCO)c(C)c4)oc23)c1` were, in that order, 0.94 nM, 0.65 nM and 1.54.
For `CCc1ncc(-c2cc3c(=O)n(C)cc(-c4cc(NS(=O)(=O)CC)ccc4Oc4ccc(F)cc4F)c3o2)[nH]1` the same measures were 1.2 nM, 0.5 nM and 2.4.
As for `CCS(=O)(=O)Nc1ccc(Oc2c(C)cc(F)cc2C)c(-c2cn(C)c(=O)c3cc(-c4cc(C)c(OCCO)c(C)c4)oc23)c1`, the IC50 in data set [1] turned out to be 6.5 nM; in data set [3] it was 0.8 nM. For the same molecule, in data set [2], the Ratio IC50 came out at 8.12.
For `Cc1cc(F)cc(C)c1Oc1ccc(C(C)(C)O)cc1-c1cn(C)c(=O)c2cc(-c3cnc(C4CCOCC4)[nH]3)oc12` the same measures were 60 nM, 0.46 nM and 130.
On to `CCS(=O)(=O)Nc1ccc(Oc2ccc(F)cc2F)c(-c2cn(C)c(=O)c3cc(-c4cnc(C5CC5)[nH]4)oc23)c1`, for which the IC50 in data set [1] is 0.7 nM; in data set [3], 0.34 nM. In data set [2], the Ratio IC50 was 2.06.
For `CCS(=O)(=O)Nc1ccc(Oc2c(F)cc(F)cc2F)c(-c2cn(C)c(=O)c3cc(-c4cc(C)c(OCCO)c(C)c4)oc23)c1` the same measures were 0.43 nM, 0.49 nM and 0.88.
For `CCS(=O)(=O)Nc1ccc(Oc2ccc(F)cc2F)c(-c2cn(C)c(=O)c3cc(-c4ccc(CCCO)cc4)oc23)c1` the same measures were 0.75 nM, 0.41 nM and 1.83.
For `CCS(=O)(=O)Nc1ccc(Oc2ccc(F)cc2F)c(-c2cn(C)c(=O)c3cc(-c4cnc(C(C)C)[nH]4)oc23)c1` the same measures were 0.95 nM, 0.54 nM and 1.76.
In turn, `CCS(=O)(=O)Nc1ccc(Oc2ccc(F)cc2F)c(-c2cn(C)c(=O)cc2OCc2ccccc2)c1` showed an IC50 in data set [3] of 0.92 nM.
For `CCS(=O)(=O)Nc1ccc(Oc2c(C)cccc2C)c(-c2cn(C)c(=O)c3cc(-c4cc(C)c(OCCO)c(C)c4)oc23)c1`, the values for the IC50 in data set [1] and in data set [3] were 6 nM and 1.3 nM, respectively. The Ratio IC50 in data set [2] worked out at 4.62.
The like results for `CCc1cccc(CC)c1Oc1ccc(NS(=O)(=O)CC)cc1-c1cn(C)c(=O)c2cc(-c3cc(C)c(OCCO)c(C)c3)oc12` were, in that order, 61 nM, 9.7 nM and 6.29.
On to `CCc1cccc(C)c1Oc1ccc(NS(=O)(=O)CC)cc1-c1cn(C)c(=O)c2cc(-c3cc(C)c(OCCO)c(C)c3)oc12`, for which the values for the IC50 in data set [1] and in data set [3] were 10 nM and 1.4 nM, respectively. Besides, the Ratio IC50 in data set [2] was determined as 7.14.
The like results for `Cc1cc(-c2cc3c(=O)n(C)cc(-c4cc(CS(=O)(=O)C(C)C)ccc4Oc4ccc(F)cc4F)c3o2)cc(C)c1OCCO` were, in that order, 0.57 nM, 0.62 nM and 0.92.
For `CCS(=O)(=O)Nc1ccc(Oc2ccc(F)cc2F)c(-c2cn(C)c(=O)c3cc(-c4ccc(OCCO)cc4)oc23)c1` the same measures were 0.56 nM, 0.62 nM and 0.9.
Turning to `Cc1sc2c(c1C)C(c1ccc(Cl)cc1)=N[C@@H](CC(=O)OC(C)(C)C)c1nnc(C)n1-2`, the ΔTm in data set [4] was -0.25 °C; in data set [5], 0.25 °C; in data set [6], -1 °C.
With `CCS(=O)(=O)Nc1ccc(Oc2ccc(F)cc2F)c(-c2cn(C)c(=O)c3cc(-c4cc(C)c(OCCO)c(C)c4)oc23)c1`, the IC50 at 72 h in data set [7] is below 10 nM. The half-maximal inhibitory concentration (IC50) in data set [1] came out at 0.56 nM; in data set [3], 0.6 nM. Moreover, the Ratio IC50 in data set [2] was 0.93.
Regarding `CCS(=O)(=O)Nc1ccc(Oc2ccc(F)cc2F)c(-c2cn(C)c(=O)c3cc(-c4cnc[nH]4)oc23)c1`, the figures for the IC50 in data set [1] and in data set [3] were 1.2 nM and 0.51 nM, respectively. For the same molecule, the Ratio IC50 in data set [2] was determined as 2.35.
The like results for `Cc1cc(-c2cc3c(=O)n(C)cc(-c4cc(NS(=O)(=O)C(C)C)ccc4Oc4ccc(F)cc4F)c3o2)cc(C)c1OCCO` were, in that order, 1.4 nM, 0.94 nM and 1.49.
The like results for `Cc1cc(-c2cc3c(=O)n(C)cc(-c4cc(CO)ccc4Oc4ccc(F)cc4F)c3o2)cc(C)c1OCCO` were, in that order, 4.1 nM, 0.98 nM and 4.18.
The like results for `Cc1cc(F)cc(C)c1Oc1ccc(C(C)(C)O)cc1-c1cn(C)c(=O)c2cc(-c3cnc(C(C)C)[nH]3)oc12` were, in that order, 192 nM, 0.68 nM and 282.
With `CCS(=O)(=O)Nc1ccc(Oc2c(OC)cccc2OC)c(-c2cn(C)c(=O)c3cc(-c4cc(C)c(OCCO)c(C)c4)oc23)c1`, the IC50 in data set [1] stood at 9.8 nM; in data set [3], 2 nM. In addition, in data set [2], the Ratio IC50 amounted to 4.9.
With `Cc1cc(-c2cc3c(=O)n(C)cc(-c4cc(NC(=O)C5CC5)ccc4Oc4ccc(F)cc4F)c3o2)cc(C)c1OCCO`, the IC50 turned out to be 6.8 nM in data set [1] and 3.2 nM in data set [3]. In addition, in data set [2], the Ratio IC50 was found to be 2.12.
The like results for `Cc1cc(-c2cc3c(=O)n(C)cc(-c4cc(NS(C)(=O)=O)ccc4Oc4ccc(F)cc4F)c3o2)cc(C)c1OCCO` were, in that order, 0.39 nM, 0.76 nM and 0.51.
On to `CCS(=O)(=O)Nc1ccc(Oc2ccc(F)cc2F)c(-c2cn(C)c(=O)c3cc(-c4cc(C)cc(C)c4)oc23)c1`, for which the IC50 came out at 6.1 nM in data set [1] and 3.7 nM in data set [3]. Moreover, the Ratio IC50 in data set [2] was determined as 1.65.
The like results for `Cc1cc(-c2cc3c(=O)n(C)cc(-c4cc(CS(=O)(=O)C(C)(C)C)ccc4Oc4ccc(F)cc4F)c3o2)cc(C)c1OCCO` were, in that order, 3.3 nM, 1.4 nM and 2.36.
The like results for `CCS(=O)(=O)Nc1ccc(Oc2ccc(F)cc2F)c(-c2cn(C)c(=O)c3cc(-c4cnc(C5CCC5)[nH]4)oc23)c1` were, in that order, 2 nM, 0.94 nM and 2.13.
The like results for `CCC(=O)Nc1ccc(Oc2ccc(F)cc2F)c(-c2cn(C)c(=O)c3cc(-c4cc(C)c(OCCO)c(C)c4)oc23)c1` were, in that order, 2.3 nM, 0.72 nM and 3.19.
`Cc1cc(-c2cc3c(=O)n(C)cc(-c4cc(NC(=O)C(C)C)ccc4Oc4ccc(F)cc4F)c3o2)cc(C)c1OCCO`: the IC50 in data set [1] amounted to 7.8 nM; in data set [3], 1.9 nM. The Ratio IC50 in data set [2] was found to be 4.11.
With `CCS(=O)(=O)Nc1ccc(Oc2ccc(F)cc2F)c(-c2cn(C)c(=O)c3cc(-c4cc(C)c(CCCO)c(C)c4)oc23)c1`, the IC50 in data set [1] turned out to be 0.72 nM; in data set [3] it was 0.49 nM. Also, the Ratio IC50 in data set [2] amounted to 1.47.
For `Cc1cc(-c2cc3c(=O)n(C)cc(-c4cc(C(C)(C)O)ccc4Oc4ccc(F)cc4F)c3o2)cc(C)c1OCCO` the same measures were 1.57 nM, 0.45 nM and 3.5.
For `Cc1cc(-c2cc3c(=O)n(C)cc(-c4cc(NS(=O)(=O)C5CC5)ccc4Oc4ccc(F)cc4F)c3o2)cc(C)c1OCCO` the same measures were 1 nM, 1 nM and 1.
For `CCc1ncc(-c2cc3c(=O)n(C)cc(-c4cc(C(C)(C)O)ccc4Oc4c(C)cc(F)cc4C)c3o2)[nH]1` the same measures were 121 nM, 0.6 nM and 202.
With `CCS(=O)(=O)Nc1ccc(Oc2ccc(F)cc2F)c(-c2cn(C)c(=O)c3cc(-c4cnc(C)[nH]4)oc23)c1`, the IC50 in data set [1] is 0.53 nM; in data set [3] it was 0.76 nM. Also, the Ratio IC50 in data set [2] amounted to 0.7.
For `Cc1cc(-c2cc3c(=O)n(C)cc(-c4cc(C(C)(C)O)ccc4Oc4c(C)cc(F)cc4C)c3o2)cc(C)c1OCCCO` the same measures were 63 nM, 1.4 nM and 45.
